From ChEMBL document CHEMBL4342527, “Discovery of Novel Fungal Lanosterol 14α-Demethylase (CYP51)/Histone Deacetylase Dual Inhibitors to Treat Azole-Resistant Candidiasis” (J Med Chem, 2020)
≈ marks a conversion by molar mass, not a printed value.

Tests used:
[1] = system: Candida albicans; experiment: Antifungal activity against azole-sensitive Candida albicans SC5314 after 48 hrs by spectrophotometry-based serial microdilution method; format: functional
[2] = system: Candida albicans; experiment: Antifungal activity against azole-resistant Candida albicans 0304103 after 48 hrs by spectrophotometry-based serial microdilution method; format: functional; details: Candida albicans, 0304103, 48 h
[3] = system: Candida albicans; experiment: Antifungal activity against azole-resistant Candida albicans 7781 after 48 hrs by spectrophotometry-based serial microdilution method; format: functional; details: Candida albicans, 7781, 48 h
[4] = system: Candida albicans; experiment: Antifungal activity against azole-resistant Candida albicans 4108 after 48 hrs by spectrophotometry-based serial microdilution method; format: functional; details: Candida albicans, 4108, 48 h
[5] = system: Candida tropicalis; experiment: Antifungal activity against azole-resistant Candida tropicalis 5008 after 48 hrs by spectrophotometry-based serial microdilution method; format: functional; details: Candida tropicalis, 5008, 48 h
[6] = system: Cryptococcus neoformans; experiment: Antifungal activity against azole-sensitive Cryptococcus neoformans H99 after 72 hrs by spectrophotometry-based serial microdilution method; format: functional, var grubii H99
[7] = Candida albicans, SC5314, 48 h, read-out: MIC80
[8] = Cryptococcus neoformans, var grubii H99 , 72 h, read-out: MIC80

CN(Cc1ccc(-n2cnn(CCCCCCC(=O)NO)c2=O)cc1)CC(O)(Cn1cncn1)c1ccc(F)cc1F (racemic)
MIC80 [1, 7]: 64 µg/mL (≈ 109 µM)
MIC80 [2]: 16 µg/mL (≈ 27.4 µM)
MIC80 [3]: 32 µg/mL (≈ 54.7 µM)
MIC80 [4]: 64 µg/mL (≈ 109 µM)
MIC80 [5]: 64 µg/mL (≈ 109 µM)
MIC80 [6, 8]: 8 µg/mL (≈ 13.7 µM)

CN(Cc1ccccc1OCCCOc1ccc(CCC(=O)NO)cc1)CC(O)(Cn1cncn1)c1ccc(F)cc1F (racemic)
MIC80 [1, 7]: 1 µg/mL (≈ 1.68 µM)
MIC80 [2]: 1 µg/mL (≈ 1.68 µM)
MIC80 [3]: 1 µg/mL (≈ 1.68 µM)
MIC80 [4]: 2 µg/mL (≈ 3.36 µM)
MIC80 [5]: 64 µg/mL (≈ 107 µM)
MIC80 [6, 8]: 2 µg/mL (≈ 3.36 µM)

CN(Cc1ccc(-n2cnn(CCCOc3ccc(CC(=O)NO)cc3)c2=O)cc1)CC(O)(Cn1cncn1)c1ccc(F)cc1F (racemic)
MIC80 [1, 7]: 64 µg/mL (≈ 98.7 µM)
MIC80 [2]: 32 µg/mL (≈ 49.3 µM)
MIC80 [3]: 4 µg/mL (≈ 6.17 µM)
MIC80 [4]: 32 µg/mL (≈ 49.3 µM)
MIC80 [5]: 4 µg/mL (≈ 6.17 µM)
MIC80 [6, 8]: 8 µg/mL (≈ 12.3 µM)

CN(Cc1ccc(OCCCCCCCC(=O)NO)cc1)CC(O)(Cn1cncn1)c1ccc(F)cc1F (racemic)
MIC80 [1, 7]: 0.25 µg/mL (≈ 0.47 µM)
MIC80 [2]: 0.5 µg/mL (≈ 0.941 µM)
MIC80 [3]: 0.5 µg/mL (≈ 0.941 µM)
MIC80 [4]: 0.5 µg/mL (≈ 0.941 µM)
MIC80 [5]: 1 µg/mL (≈ 1.88 µM)
MIC80 [6, 8]: 0.5 µg/mL (≈ 0.941 µM)

CN(Cc1ccc(-n2cnn(CCCCCCCC(=O)NO)c2=O)cc1)CC(O)(Cn1cncn1)c1ccc(F)cc1F (racemic)
MIC80 [1, 7]: 16 µg/mL (≈ 26.7 µM)
MIC80 [2]: 8 µg/mL (≈ 13.4 µM)
MIC80 [3]: 8 µg/mL (≈ 13.4 µM)
MIC80 [4]: 64 µg/mL (≈ 107 µM)
MIC80 [5]: 8 µg/mL (≈ 13.4 µM)
MIC80 [6, 8]: 2 µg/mL (≈ 3.34 µM)

CN(Cc1ccc(CCCCOc2ccc(CC(=O)NO)cc2)cc1)CC(O)(Cn1cncn1)c1ccc(F)cc1F (racemic)
MIC80 [1, 7]: 0.125 µg/mL (≈ 0.216 µM)
MIC80 [2]: 0.5 µg/mL (≈ 0.863 µM)
MIC80 [3]: 1 µg/mL (≈ 1.73 µM)
MIC80 [4]: 1 µg/mL (≈ 1.73 µM)
MIC80 [5]: 0.5 µg/mL (≈ 0.863 µM)
MIC80 [6, 8]: 0.5 µg/mL (≈ 0.863 µM)

O=C(NO)c1ccc(OCCCc2ncn(CC(O)(Cn3cncn3)c3ccc(F)cc3F)n2)cc1 (racemic)
MIC80 [1, 7]: 8 µg/mL (≈ 16 µM)
MIC80 [2]: 64 µg/mL (≈ 128 µM)
MIC80 [3]: 8 µg/mL (≈ 16 µM)
MIC80 [4]: 32 µg/mL (≈ 64.1 µM)
MIC80 [5]: 64 µg/mL (≈ 128 µM)
MIC80 [6, 8]: 64 µg/mL (≈ 128 µM)

CN(Cc1ccc(CCCC(=O)Nc2ccc(C(=O)NO)cc2)cc1)CC(O)(Cn1cncn1)c1ccc(F)cc1F (racemic)
MIC80 [1, 7]: 4 µg/mL (≈ 6.91 µM)
MIC80 [2]: 16 µg/mL (≈ 27.7 µM)
MIC80 [3]: 8 µg/mL (≈ 13.8 µM)
MIC80 [4]: 32 µg/mL (≈ 55.3 µM)
MIC80 [5]: 8 µg/mL (≈ 13.8 µM)
MIC80 [6, 8]: 8 µg/mL (≈ 13.8 µM)

O=C(NO)c1ccc(OCCCc2ncnn2CC(O)(Cn2cncn2)c2ccc(F)cc2F)cc1 (racemic)
MIC80 [1, 7]: 64 µg/mL (≈ 128 µM)
MIC80 [2]: 32 µg/mL (≈ 64.1 µM)
MIC80 [3]: 8 µg/mL (≈ 16 µM)
MIC80 [4]: 64 µg/mL (≈ 128 µM)
MIC80 [5]: > 64 µg/mL
MIC80 [6, 8]: 64 µg/mL (≈ 128 µM)

CN(Cc1ccc(OCCCOc2ccc(CCC(=O)NO)cc2)cc1)CC(O)(Cn1cncn1)c1ccc(F)cc1F (racemic)
MIC80 [1, 7]: 1 µg/mL (≈ 1.68 µM)
MIC80 [2]: 2 µg/mL (≈ 3.36 µM)
MIC80 [3]: 2 µg/mL (≈ 3.36 µM)
MIC80 [4]: 4 µg/mL (≈ 6.72 µM)
MIC80 [5]: 4 µg/mL (≈ 6.72 µM)
MIC80 [6, 8]: 1 µg/mL (≈ 1.68 µM)

O=C(CCCCCCC(=O)Nc1ccccc1)NO [VORINOSTAT]
MIC80 [1]: >64 µg/mL
MIC80 [6]: >64 µg/mL

CN(Cc1ccc(-n2cnn(CCCC(=O)NO)c2=O)cc1)CC(O)(Cn1cncn1)c1ccc(F)cc1F (racemic)
MIC80 [1, 7]: 8 µg/mL (≈ 14.7 µM)
MIC80 [2]: 64 µg/mL (≈ 118 µM)
MIC80 [3]: 32 µg/mL (≈ 59 µM)
MIC80 [4]: 8 µg/mL (≈ 14.7 µM)
MIC80 [5]: 8 µg/mL (≈ 14.7 µM)
MIC80 [6, 8]: 2 µg/mL (≈ 3.69 µM)

O=C(Cc1ccc(OCCCc2ncn(CC(O)(Cn3cncn3)c3ccc(F)cc3F)n2)cc1)NO (racemic)
MIC80 [1, 7]: 32 µg/mL (≈ 62.3 µM)
MIC80 [2]: 32 µg/mL (≈ 62.3 µM)
MIC80 [3]: 8 µg/mL (≈ 15.6 µM)
MIC80 [4]: > 64 µg/mL
MIC80 [5]: 64 µg/mL (≈ 125 µM)
MIC80 [6, 8]: 32 µg/mL (≈ 62.3 µM)

CN(Cc1ccc(-n2cnn(CCCc3ccc(C(=O)NO)cc3)c2=O)cc1)CC(O)(Cn1cncn1)c1ccc(F)cc1F (racemic)
MIC80 [1, 7]: 32 µg/mL (≈ 51.7 µM)
MIC80 [2]: 4 µg/mL (≈ 6.47 µM)
MIC80 [3]: 2 µg/mL (≈ 3.23 µM)
MIC80 [4]: 32 µg/mL (≈ 51.7 µM)
MIC80 [5]: 8 µg/mL (≈ 12.9 µM)
MIC80 [6, 8]: 2 µg/mL (≈ 3.23 µM)

CN(Cc1ccc(CCCOc2ccc(CC(=O)NO)cc2)cc1)CC(O)(Cn1cncn1)c1ccc(F)cc1F (racemic)
MIC80 [1, 7]: 0.125 µg/mL (≈ 0.221 µM)
MIC80 [2]: 0.5 µg/mL (≈ 0.884 µM)
MIC80 [3]: 0.25 µg/mL (≈ 0.442 µM)
MIC80 [4]: 0.5 µg/mL (≈ 0.884 µM)
MIC80 [5]: 2 µg/mL (≈ 3.54 µM)
MIC80 [6, 8]: 0.5 µg/mL (≈ 0.884 µM)

CN(Cc1ccc(-n2cnn(CCOc3ccc(CC(=O)NO)cc3)c2=O)cc1)CC(O)(Cn1cncn1)c1ccc(F)cc1F (racemic)
MIC80 [1, 7]: 2 µg/mL (≈ 3.15 µM)
MIC80 [2]: 4 µg/mL (≈ 6.3 µM)
MIC80 [3]: 4 µg/mL (≈ 6.3 µM)
MIC80 [4]: 32 µg/mL (≈ 50.4 µM)
MIC80 [5]: 8 µg/mL (≈ 12.6 µM)
MIC80 [6, 8]: 4 µg/mL (≈ 6.3 µM)

O=C(NO)c1ccc(OCCCCc2ncnn2CC(O)(Cn2cncn2)c2ccc(F)cc2F)cc1 (racemic)
MIC80 [1, 7]: 32 µg/mL (≈ 62.3 µM)
MIC80 [2]: 32 µg/mL (≈ 62.3 µM)
MIC80 [3]: > 64 µg/mL
MIC80 [4]: > 64 µg/mL
MIC80 [5]: > 64 µg/mL
MIC80 [6, 8]: 64 µg/mL (≈ 125 µM)

C[C@@H](c1ncncc1F)[C@](O)(Cn1cncn1)c1ccc(F)cc1F [VORICONAZOLE]
MIC80 [1, 7]: 0.125 µg/mL (≈ 0.358 µM)
MIC80 [2]: > 64 µg/mL
MIC80 [3]: > 64 µg/mL
MIC80 [4]: > 64 µg/mL
MIC80 [5]: > 64 µg/mL
MIC80 [6, 8]: 0.0625 µg/mL (≈ 0.179 µM)
